Results reported in patent US9061066B2 (priority 2010, dated 2015).

What was measured:
mouse DCs [1] = format: cell-based
mouse DCs [2] = format: cell-based; remark: listed apart in the source
[3] = system: CD8+ OT-I T cells in C57B1/6 Ly5.1 mice; conditions: mouse, in vivo, sc

Substance | TNF-alpha and IL-12 secretion, comparison of cyclic glucan structures (mouse DCs [1]) | surface expression of CD80, CD86, CD40 and MHC class II, comparison of cyclic glucan structures (mouse DCs [2]) | OT-I T cell proliferation in the draining lymph node [3]
methyl-cyclodextrin [MβCD] | none of the cytokines were secreted | failed to significantly activate DC | –
Poly I/C | – | – | OT-I T cell proliferation
